For data set [1], the target named is biotinylated human S100A9 : rhRAGE-Fc interaction (Homo sapiens (Human), UniProt P06702). Kind of data set: AlphaScreen inhibition assay, Biot-hS100A9:hRAGE-Fc (S100A9-RAGE inhibition assay). The format is binding.
The nature of data set [2]: Prodrug assay: plasma concentrations of prodrugs and demethylated parents after cassette dosing, LC-MS. Format: in vivo, C57 Bl/6 mice. The following applies: C57 Bl/6, mouse, solution, read-out: Parent (demethylated compound) Conc. in plasma after prodrug dosing. The method, then: ABR-239313, 239470 and 239749 were administered to seven C57 Bl/6 mice as a cassette formulation either intravenously (4 animals, nominal 1 mg/kg) or per oral (3 animals, nominal 5 mg/kg).
Blood samples were collected at time points ranging from 5 minutes to 7 hours after administration. After sample withdrawal, plasma was directly separated and frozen until analysis.
The plasma as well as the formulation samples were analyzed with respect to the concentration of ABR-239313, 239470, 239749 and the corresponding demethylated compounds, i.e. Examples 9, 75 and 73 (ABR-239247, 239417 and 239167) by means of LC-MS.
The samples were precipitated with acidified acetonitrile and centrifuged prior to injection on LC-MS system (consisting of a triple quadrupole instrument operated in negative MRM ionization mode, and a fast-gradient reversed-phase LC on a Symmetry Shield RP18, 2×30 mm, 3.5 um column).
In Table 3 the concentrations of each analyte are presented.

[3] abbreviates: intravenous, i.v. cassette of prodrugs, nominal 1 mg/kg.
The mark [4] stands for this setting: oral, p.o. cassette of prodrugs, nominal 5 mg/kg.

In patent US10125125B2, “N-(heteroaryl)-sulfonamide derivatives useful as S100-inhibitors” (Active Biotech AB, priority 2013, dated 2018) one finds IC50 and concentration data, which are given here for three molecules.

Read-outs that look alike come from different tables or passages of the source.

biotinylated human S100A9 : rhRAGE-Fc interaction, sequence (P06702 whole entry): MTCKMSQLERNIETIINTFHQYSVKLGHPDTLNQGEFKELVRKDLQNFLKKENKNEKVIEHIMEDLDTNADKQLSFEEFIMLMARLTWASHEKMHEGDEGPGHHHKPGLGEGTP

For `O=S(=O)(Cc1cc(Cl)cc(Cl)c1)Nc1ncc(Cl)cc1O` [Example 9, N-(5-chloro-3-hydroxypyridin-2-yl)-1-(3,5-dichlorophenyl)methanesulfonamide], in data set [1], the IC50 stood at 120 nM. Besides, in data set [2] (setting [3]), the concentration at 0.083 h amounted to 44 nM, the concentration at 0.5 h worked out at 5 nM, the concentration at 1 h stood at 3 nM and the concentration at 2 h stood at 6 nM. In addition, in data set [2] (setting [3]), the concentration at 4 h worked out at 4 nM and the concentration at 7 h amounted to 4 nM. In data set [2] (setting [4]), the concentration at 0.5 h stood at 45 nM, the concentration at 1 h was 26 nM, the concentration at 2 h was determined as 21 nM and the concentration at 4 h is 12 nM. The concentration at 7 h in data set [2] (setting [4]) is 19 nM.
`O=S(=O)(Nc1cnc(Cl)cc1O)c1cc(Cl)sc1Cl` [Example 73, 2,5-dichloro-N-(6-chloro-4-hydroxypyridin-3-yl)thiophene-3-sulfonamide]: the IC50 in data set [1] is 1200 nM. Moreover, in data set [2] (setting [3]), the concentration at 0.083 h amounted to 89 nM, the concentration at 0.5 h amounted to 200 nM, the concentration at 1 h was determined as 190 nM and the concentration at 2 h was 210 nM. Also, in data set [2] (setting [3]), the concentration at 4 h worked out at 180 nM and the concentration at 7 h was 130 nM. Moreover, in data set [2] (setting [4]), the concentration at 0.5 h is 460 nM, the concentration at 1 h was determined as 490 nM, the concentration at 2 h was 690 nM and the concentration at 4 h is 610 nM. Further, in data set [2] (setting [4]), the concentration at 7 h was found to be 780 nM.
On to `O=S(=O)(Cc1ccc(Cl)c(Cl)c1)Nc1ncc(Br)nc1O` [Example 75, N-(5-bromo-3-hydroxypyrazin-2-yl)-1-(3,4-dichlorophenyl)methanesulfonamide], for which the concentration for half-maximal inhibition (IC50) in data set [1] came to 250 nM. In addition, in data set [2] (setting [3]), the concentration at 0.083 h was 120 nM, the concentration at 0.5 h was 320 nM, the concentration at 1 h amounted to 320 nM and the concentration at 2 h was found to be 320 nM. Also, in data set [2] (setting [3]), the concentration at 4 h amounted to 210 nM and the concentration at 7 h came out at 200 nM. Also, in data set [2] (setting [4]), the concentration at 0.5 h was 570 nM, the concentration at 1 h was 860 nM, the concentration at 2 h was found to be 800 nM and the concentration at 4 h is 630 nM. Further, the concentration at 7 h in data set [2] (setting [4]) was 1100 nM.
